# Data as given in patent publication US8124579B2, “Heat shock protein 20-related polypeptides and uses therefor” (Arizona Board of Regents, priority 2003, dated 2012).
# Tested on: Swiss 3T3 cells
# Experiment: Actin stress fibers and cell morphology, phalloidin staining
# Assay type: cell-based
# Settings: peptides 25 μM, forskolin and lysophosphatidic acid 10 μM, serum 10%, 30 minutes, phalloidin stain
# Description: Unless otherwise stated, all reagents were purchased from Sigma, St. Louis, Mo. Swiss Albino 3T3 fibroblasts (ATCC, Manassas, Va.) were cultured in DMEM supplemented with 10% BCS, 4 mM L-glutamine and 50 μg/ml penicillin-streptomycin and maintained at 37° C., 5% CO2. Cells were seeded and cultured overnight. Culture media was replaced with DMEM containing 0.5% BCS 1 hour prior to experimentation. Cells were incubated with the peptide analogues or reagent (LPA or forskolin) diluted in DMEM containing 0.5% BCS, 30 minutes at 37° C. Cells were then fixed in 4% paraformaldehyde, permeabilized in 0.25% Triton X-100, and blocked with 1% BSA solution for 1 hour. To determine α-actin cytoskeletal distribution, treated cells were incubated with Alexa 568 phalloidin (Molecular Probes, Eugene, Oreg.) in 1% BSA, 30 min. To determine focal adhesion protein localization, treated cells were incubated with primary monoclonal antibodies for α-actinin (1:100, Upstate, Charlottesville, Va.), vinculin (1:100, Sigma) or paxillin (1:100, BD Bioscience-Transduction Labs, San Jose, Calif.) in 1% BSA solution for 2 hours, rinsed in PBS and incubated 60 minutes with Cy3-goat IgG secondary antibody (Jackson ImmunoResearch, West Grove, Pa.). Slides were mounted and analyzed by confocal microscopy (Leica TCS SP2, Bannockburn, Ill.). […]
substance,measurement,value
lysophosphatidic acid,stress fibers and cell morphology,displayed robust stress fibers
